Tests used:
Prothrombin [1] = target: T1, Prothrombin (Homo sapiens, UniProt P00734); test: Binding affinity to thrombin in presence of 100 mJ/cm'2 UV light by surface plasmon resonance assay
Prothrombin [2] = target: T1, Prothrombin; test: Binding affinity to thrombin by surface plasmon resonance assay

Compound Cc1cn([C@H]2C[C@H](OP(=O)(O)OC[C@H]3O[C@@H](n4cnc5c(=O)[nH]c(N)nc54)[C@H](O)[C@@H]3OP(=O)(O)OC[C@H]3O[C@@H](n4cnc5c(=O)[nH]c(N)nc54)[C@H](O)[C@@H]3OP(=O)(O)OC[C@H]3O[C@@H](n4cc(C)c(=O)[nH]c4=O)C[C@@H]3OP(=O)(O)OC[C@H]3O[C@@H](n4cc(C)c(=O)[nH]c4=O)C[C@@H]3OP(=O)(O)OC[C@H]3O[C@@H](n4cnc5c(=O)[nH]c(N)nc54)[C@H](O)[C@@H]3OP(=O)(O)OC[C@H]3O[C@@H](n4cnc5c(=O)[nH]c(N)nc54)[C@H](O)[C@@H]3O)[C@@H](COP(=O)(O)O[C@H]3[C@@H](O)[C@H](n4cnc5c(=O)[nH]c(N)nc54)O[C@@H]3COP(=O)(O)O[C@H]3C[C@H](n4cc(C)c(=O)[nH]c4=O)O[C@@H]3COP(=O)(O)O[C@H]3[C@@H](O)[C@H](n4cnc5c(=O)[nH]c(N)nc54)O[C@@H]3COP(=O)(O)O[C@H]3[C@@H](O)[C@H](n4cnc5c(=O)[nH]c(N)nc54)O[C@@H]3COP(=O)(O)O[C@H]3C[C@H](n4cc(C)c(=O)[nH]c4=O)O[C@@H]3COP(=O)(O)O[C@H]3C[C@H](n4cc(C)c(=O)[nH]c4=O)O[C@@H]3COP(=O)(O)O[C@H]3[C@@H](O)[C@H](n4cnc5c(=O)[nH]c(N)nc54)O[C@@H]3COP(=O)(O)O[C@H]3[C@@H](O)[C@H](n4cnc5c(=O)[nH]c(N)nc54)O[C@@H]3CO)O2)c(=O)[nH]c1=O [THROMBIN APTAMER] has a Kd (Prothrombin [1]) of 390 nM and a Kd (Prothrombin [2]) of 320 nM.

Reference: ChEMBL document CHEMBL1154228, “Photoregulation of thrombin aptamer activity using Bhc caging strategy” (Bioorg Med Chem Lett, 2009)
